Paper PMC10003107, “Selectivity of Hydroxamate- and Difluoromethyloxadiazole-Based Inhibitors of Histone Deacetylase 6 In Vitro and in Cells” (International Journal of Molecular Sciences, 2023)
Several values for one entry are separate records, joined by “and”; a condition that tells them apart may be missing. Equal values may be shown once.

Columns and labels:
HDAC10 = biological target: T1, HDAC10 (Homo sapiens, UniProt Q969S8); assay: In vitro deacetylation assay, HDAC10 (fluorescein-labeled N8-acetylspermidine, RP-HPLC); assay type: biochemical; settings: for IC50: purified human HDAC10, read-out: IC50 HDAC10; for SI (HD6/HD10): ratio of IC50 HDAC10 divided by IC50 HDAC6
T1 construct: HDAC10 1 – 667 Open Biosystems; Strep-FLAG-HALO (N); made in house; host or cells: HEK293/T17
T1 sequence (Q969S8 1-667): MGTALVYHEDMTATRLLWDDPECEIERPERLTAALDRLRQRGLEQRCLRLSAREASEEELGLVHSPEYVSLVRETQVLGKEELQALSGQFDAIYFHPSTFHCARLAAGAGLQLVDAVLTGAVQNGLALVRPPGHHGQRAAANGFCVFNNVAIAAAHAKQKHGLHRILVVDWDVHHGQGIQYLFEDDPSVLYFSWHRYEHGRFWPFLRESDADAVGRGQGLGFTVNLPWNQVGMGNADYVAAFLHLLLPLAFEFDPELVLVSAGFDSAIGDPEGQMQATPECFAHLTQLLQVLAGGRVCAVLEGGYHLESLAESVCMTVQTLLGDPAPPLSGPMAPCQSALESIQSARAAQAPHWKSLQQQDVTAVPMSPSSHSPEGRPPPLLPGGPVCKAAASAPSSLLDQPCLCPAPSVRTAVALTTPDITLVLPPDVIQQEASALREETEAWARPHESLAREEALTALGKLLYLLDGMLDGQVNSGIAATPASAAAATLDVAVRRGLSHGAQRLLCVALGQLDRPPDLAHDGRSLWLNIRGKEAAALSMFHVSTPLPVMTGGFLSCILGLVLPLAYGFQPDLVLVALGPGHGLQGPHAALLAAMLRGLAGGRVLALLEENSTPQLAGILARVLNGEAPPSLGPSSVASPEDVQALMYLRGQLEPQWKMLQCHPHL

tubulin acetylation = assay: Tubulin acetylation in RPMI-8226 cells by quantitative Western blotting; assay type: cell-based; settings: Homo sapiens, RPMI-8226, 6 h; read-out: IC50 tubulin deacetylation (relative tubulin acetylation)
HDAC1-nanoLuc = HDAC1-nanoLuc (Homo sapiens, UniProt Q13547); assay: nanoBRET target engagement assay, HDAC1; assay type: cell-based; settings: HEK293T/17 cells stably expressing HDAC1-nanoLuc, 2 h
histone H3 acetylation = assay: Histone H3 (K9/K14) acetylation in RPMI-8226 cells by Western blotting; assay type: cell-based; settings: 6 h, Western blot
all other HDAC isoforms = assay: In vitro isotype selectivity screening against panel of zinc-dependent human HDACs; assay type: biochemical
Procedure: Customized assays were used for individual HDAC isoforms to reflect their distinct substrate specificity. All reactions were carried out in the activity buffer comprising 50 mM HEPES, 140 mM NaCl, 10 mM KCl, pH 7.4 supplemented with 1 mg/mL bovine serum albumin (BSA) and 1 mM tris(2-carboxyethyl) phosphine (TCEP).
HDACs 1–9, 11: Assays were performed essentially as described previously. Briefly, the Ac-GAK-Ac-AMC substrate was used to determine the activity of HDACs 1, 2, 3, and 6; and the Boc-Lys(TFA)-AMC substrate was used for HDACs 4, 5, 7, 8, 9, and 11 (both substrates Bachem, Bubendorf, Switzerland). […] Released aminometyl coumarine was quantified using a CLARIOstar plate reader (BMG Labtech GmbH, Ortenberg, Germany) at λex/λem = 365/440 nm.
HDAC10: Recombinant human HDAC10 (0.5 nM) in the reaction buffer was preincubated with a 3-fold dilution series of a tested inhibitor at 37 °C for 15 min and the reaction initiated by the addition of a substrate (N8-acetylspermidine labeled with fluorescein; 10 µM final concentration) in a total volume of 50 µL. […] Reaction mixtures were analyzed by RP-HPLC with a Kinetex 2.6 μm XB-C18 100 Å column with a fluorescence detector set to λEX/λEM = 492/516.
HDAC inhibition was calculated using corresponding non-inhibited reactions as a control. […]

RPMI-8226 lymphoblasts = assay: MTT viability assay; assay type: cell-based; settings: RPMI-8226 cells, 48 h, MTT
Procedure: RPMI-8226 lymphoblasts (ATTC #CCL-155) were used to assess the cytotoxicity of tested compounds. […] Dilution series of tested inhibitors were prepared as 10x stock solutions in PBS and 10 μL was added to cells and incubated under a 5% CO2 atmosphere at 37 °C, for 2 days. Following incubation, 10 μL of MTT reagent (3-(4,5-dimethylthiazol-2-yl)-2,5-diphenyltetrazolium bromide, 5 mg/mL in PBS, Sigma Aldrich) was added to each well and incubated for 90 min, 37 °C, 5% CO2. […]

HDAC1-nanoLuc, sequence (Q13547 whole entry): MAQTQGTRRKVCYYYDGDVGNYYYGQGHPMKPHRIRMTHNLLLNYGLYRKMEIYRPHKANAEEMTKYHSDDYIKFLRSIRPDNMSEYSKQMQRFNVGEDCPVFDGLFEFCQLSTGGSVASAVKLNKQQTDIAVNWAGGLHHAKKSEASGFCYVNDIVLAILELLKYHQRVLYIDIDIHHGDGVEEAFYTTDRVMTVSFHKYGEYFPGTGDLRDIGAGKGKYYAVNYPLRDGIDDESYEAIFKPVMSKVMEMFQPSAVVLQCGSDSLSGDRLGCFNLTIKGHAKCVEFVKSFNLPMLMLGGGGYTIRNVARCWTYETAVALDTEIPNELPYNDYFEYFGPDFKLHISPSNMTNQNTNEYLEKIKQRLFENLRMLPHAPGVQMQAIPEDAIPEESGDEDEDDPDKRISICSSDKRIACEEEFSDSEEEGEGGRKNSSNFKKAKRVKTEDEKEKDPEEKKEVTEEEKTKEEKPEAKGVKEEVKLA

SMILES	IC50 (HDAC10) [nM]	SI (HD6/HD10) (HDAC10)	IC50 (tubulin acetylation) [nM]	EC50 (HDAC1-nanoLuc) [nM]	effect on histone H3 (K9/K14) acetylation, class I HDAC inhibition (histone H3 acetylation)	selectivity for HDAC6 over all other HDAC isoforms (all other HDAC isoforms)	effect on cell viability (RPMI-8226 lymphoblasts)
O=C(NO)c1cnc(NC2(c3cccc(F)c3)CCCCC2)nc1 [ACY-775]	34	30.6	426	> 50000	–	–	–
CS(=O)(=O)N(Cc1ccc(-c2nnc(C(F)F)o2)cn1)c1cccc(Cl)c1 [compound 7, N-(3-chlorophenyl)-N-((5-(5-(difluoromethyl)-1,3,4-oxadiazol-2-yl)pyridin-2-yl)methyl)methanesulfonamide]	> 50000	>25,000	616	> 50000	does not increase H3 acetylation even at the highest concentrations	10,000 fold and > 10,000 fold	less pronounced effects on cell viability at high inhibitor concentrations
